Results from patent US6352958B1, “Cycloimido-substituted benzofused heterocyclic herbicides” (FMC Corporation, priority 1997, dated 2002).

Columns and labels:
Assay type in all cases: in vivo
[1] = tested on: Johnsongrass (Sorghum halepense); test: Postemergence herbicidal activity, johnsongrass; conditions: rate of application 0.3 Kg/Ha, rated after 12-17 days
Protocol: (§1) The benzofused heterocyclic compounds of this invention were tested for pre- and postemergence herbicidal activity using a variety of crops and weeds. The test plants included soybean (Glycine max var. Winchester), field corn (Zea mays var. Pioneer 3732), wheat (Triticum aestivum var. Lew), morningglory (Ipomea lacunosa or Ipomea hederacea), velvetleaf (Abutilon theophrasti), green foxtail (Setaria viridis), Johnsongrass (Sorghum halepense), blackgrass (Aloepecurus myosuroides), common chickweed (Stellaria media), and common cocklebur (Xanthium strumarium L.).
(§2) For preemergence testing, two disposable fiber flats (8 cm×15 cm×25 cm) for each rate of application of each candidate herbicide were filled to an approximate depth of 6.5 cm with steam-sterilized sandy loam soil. The soil was leveled and impressed with a template to provide five evenly spaced furrows 13 cm long and 0.5 cm deep in each flat. Seeds of soybean, wheat, corn, green foxtail, and johnsongrass were planted in the furrows of the first flat, and seeds of velvetleaf, morningglory, common chickweed, cocklebur, and blackgrass were planted in the furrows of the second flat. The five-row template was employed to firmly press the seeds into place. A topping soil of equal portions of sand and sandy loam soil was placed uniformly on top of each flat to a depth of approximately 0.5 cm. Flats for postemergence testing were prepared in the same manner except that they were planted 9-14 days prior to the preemergence flats and were placed in a greenhouse and watered, thus allowing the seeds to germinate and the foliage to develop.
(§3) In both pre- and postemergence tests, a stock solution of the candidate herbicide was prepared by dissolving 0.27 g of the compound in 20 mL of water/acetone (50/50) containing 0.5% v/v sorbitan monolaurate. For an application rate of 3000 g/ha of herbicide a 10 mL portion of the stock solution was diluted with water/acetone (50/50) to 45 mL.
(§4) The preemergence flats were initially subjected to a light water spray. The four flats were placed two by two along a conveyor belt (i.e., the two preemergence followed by the two postemergence flats). The conveyor belt fed under a spray nozzle mounted about ten inches above the post-emergent foliage. The preemergent flats were elevated on the belt so that the soil surface was at the same level below the spray nozzle as the foliage canopy of the postemergent plants. The spray of herbicidal solution was commenced and once stabilized, the flats were passed under the spray at a speed to receive a coverage equivalent of 100 L/ha. At this coverage the application rates are those shown in the above table for the individual herbicidal solutions. The preemergence flats were watered immediately thereafter, placed in the greenhouse and watered regularly at the soil surface. The postemergence flats were immediately placed in the green-house and not watered until 24 hours after treatment with the test solution. Thereafter they were regularly watered at ground level. After 12-17 days the plants were examined and the phytotoxicity data were recorded.
(§5) Phytotoxicity data were taken as percent control. Percent control was determined by a method similar to the 0 to 100 rating system disclosed in “Research Methods in Weed Science,” 2nd ed., B. Truelove, Ed.; Southern Weed Science Society; Auburn University, Auburn, Ala., 1977.

[2] = tested on: common cocklebur (Xanthium strumarium L.); test: Postemergence herbicidal activity, cocklebur; conditions: rate of application 0.3 Kg/Ha, rated after 12-17 days
Protocol: as §1, §2, §3, §4, §5

[3] = tested on: common chickweed (Stellaria media); test: Postemergence herbicidal activity, chickweed; conditions: rate of application 0.3 Kg/Ha, rated after 12-17 days
Protocol: as §1, §2, §3, §4, §5

[4] = tested on: field corn (Zea mays var. Pioneer 3732); test: Preemergence herbicidal activity, corn; conditions: Rate of Application 0.3 Kg/Ha, examined after 12-17 days
Protocol: as §1, §2, §3, §4, §5

[5] = tested on: common cocklebur (Xanthium strumarium L.); test: Preemergence herbicidal activity, cocklebur; conditions: Rate of Application 0.3 Kg/Ha, examined after 12-17 days
Protocol: as §1, §2, §3, §4, §5

[6] = tested on: field corn (Zea mays var. Pioneer 3732); test: Postemergence herbicidal activity, corn; conditions: rate of application 0.3 Kg/Ha, rated after 12-17 days
Protocol: as §1, §2, §3, §4, §5

[7] = tested on: wheat (Triticum aestivum var. Lew); test: Preemergence herbicidal activity, wheat; conditions: Rate of Application 0.3 Kg/Ha, examined after 12-17 days
Protocol: as §1, §2, §3, §4, §5

[8] = tested on: velvetleaf (Abutilon theophrasti); test: Preemergence herbicidal activity, velvetleaf; conditions: Rate of Application 0.3 Kg/Ha, examined after 12-17 days
Protocol: as §1, §2, §3, §4, §5

[9] = tested on: green foxtail (Setaria viridis); test: Postemergence herbicidal activity, green foxtail; conditions: rate of application 0.3 Kg/Ha, rated after 12-17 days
Protocol: as §1, §2, §3, §4, §5

[10] = tested on: soybean (Glycine max var. Winchester); test: Postemergence herbicidal activity, soybean; conditions: rate of application 0.3 Kg/Ha, rated after 12-17 days
Protocol: as §1, §2, §3, §4, §5

[11] = tested on: soybean (Glycine max var. Winchester); test: Preemergence herbicidal activity, soybean; conditions: Rate of Application 0.3 Kg/Ha, examined after 12-17 days
Protocol: as §1, §2, §3, §4, §5

[12] = tested on: morningglory (Ipomea lacunosa or Ipomea hederacea); test: Postemergence herbicidal activity, morningglory; conditions: rate of application 0.3 Kg/Ha, rated after 12-17 days
Protocol: as §1, §2, §3, §4, §5

[13] = tested on: common chickweed (Stellaria media); test: Preemergence herbicidal activity, chickweed; conditions: Rate of Application 0.3 Kg/Ha, examined after 12-17 days
Protocol: as §1, §2, §3, §4, §5

[14] = tested on: Johnsongrass (Sorghum halepense); test: Preemergence herbicidal activity, johnsongrass; conditions: Rate of Application 0.3 Kg/Ha, examined after 12-17 days
Protocol: as §1, §2, §3, §4, §5

[15] = tested on: morningglory (Ipomea lacunosa or Ipomea hederacea); test: Preemergence herbicidal activity, morningglory; conditions: Rate of Application 0.3 Kg/Ha, examined after 12-17 days
Protocol: as §1, §2, §3, §4, §5

[16] = tested on: wheat (Triticum aestivum var. Lew); test: Postemergence herbicidal activity, wheat; conditions: rate of application 0.3 Kg/Ha, rated after 12-17 days
Protocol: as §1, §2, §3, §4, §5

[17] = tested on: green foxtail (Setaria viridis); test: Preemergence herbicidal activity, green foxtail; conditions: Rate of Application 0.3 Kg/Ha, examined after 12-17 days
Protocol: as §1, §2, §3, §4, §5

[18] = tested on: velvetleaf (Abutilon theophrasti); test: Postemergence herbicidal activity, velvetleaf; conditions: rate of application 0.3 Kg/Ha, rated after 12-17 days
Protocol: as §1, §2, §3, §4, §5

Structure (SMILES) | Postemergence herbicidal activity (% control) SORHA [1] [%] | Postemergence herbicidal activity (% control) XANPE [2] [%] | Postemergence herbicidal activity (% control) STEME [3] [%] | PREEMERGENCE HERBICIDAL ACTIVITY (% CONTROL) CRN [4] [%] | PREEMERGENCE HERBICIDAL ACTIVITY (% CONTROL) XANPE [5] [%] | Postemergence herbicidal activity (% control) CRN [6] [%] | PREEMERGENCE HERBICIDAL ACTIVITY (% CONTROL) WHT [7] [%] | PREEMERGENCE HERBICIDAL ACTIVITY (% CONTROL) ABUTH [8] [%] | Postemergence herbicidal activity (% control) SETVI [9] [%] | Postemergence herbicidal activity (% control) SOY [10] [%] | PREEMERGENCE HERBICIDAL ACTIVITY (% CONTROL) SOY [11] [%] | Postemergence herbicidal activity (% control) IPOSS [12] [%] | PREEMERGENCE HERBICIDAL ACTIVITY (% CONTROL) STEME [13] [%] | PREEMERGENCE HERBICIDAL ACTIVITY (% CONTROL) SORHA [14] [%] | PREEMERGENCE HERBICIDAL ACTIVITY (% CONTROL) IPOSS [15] [%] | Postemergence herbicidal activity (% control) WHT [16] [%] | PREEMERGENCE HERBICIDAL ACTIVITY (% CONTROL) SETVI [17] [%] | Postemergence herbicidal activity (% control) ABUTH [18] [%]
Cn1c(C(F)(F)F)cc(=O)n(-c2c(F)cc(F)c3cc(C(C)(C)C)oc23)c1=O [Compound 228] | 90 | 95 | 80 | 95 | 90 | 80 | 80 | 100 | 100 | 90 | 100 | 100 | 100 | 100 | 100 | 50 | 100 | 100
Cn1c(C(F)(F)F)cc(=O)n(-c2c(F)cc(Cl)c3cc(C(C)(C)NS(C)(=O)=O)oc23)c1=O [Compound 255] | 100 | 100 | 100 | 95 | 100 | 100 | 90 | 100 | 100 | 100 | 100 | 100 | 100 | 100 | 100 | 100 | 100 | 100
Cn1c(C(F)(F)F)cc(=O)n(-c2ccc(Cl)c3cc(C(Br)Br)oc23)c1=O [Compound 233] | 30 | 30 | 30 | 70 | 20 | 60 | 30 | 100 | 30 | 90 | 40 | 100 | 20 | 50 | 95 | 30 | 60 | 100
Cn1c(C(F)(F)F)cc(=O)n(-c2ccc(Cl)c3cc(C(=O)O)oc23)c1=O [Compound 266] | 40 | 10 | 10 | 60 | 0 | 60 | 30 | 40 | 40 | 60 | 50 | 60 | 0 | 30 | 70 | 40 | 30 | 50
Cn1c(C(F)(F)F)cc(=O)n(-c2ccc(Cl)c3cc(CBr)oc23)c1=O [Compound 232] | 10 | 40 | 20 | 50 | 10 | 30 | 30 | 90 | 30 | 75 | 20 | 80 | 20 | 25 | 80 | 50 | 40 | 100
Cn1c(C(F)(F)F)cc(=O)n(-c2ccc(Cl)c3cc(C(C)(C)C)oc23)c1=O [Compound 226] | 80 | 90 | 80 | 70 | 60 | 80 | 50 | 100 | 100 | 70 | 70 | 95 | 90 | 80 | 90 | 40 | 100 | 100
Cn1c(C(F)(F)F)cc(=O)n(-c2c(F)cc(Cl)c3cc(CCO)oc23)c1=O [Compound 239] | 80 | 100 | 100 | 90 | – | 80 | 70 | 100 | 100 | 95 | 100 | 100 | 100 | 90 | 100 | 60 | 100 | 100
